Primed or numbered codes have the meaning given here. FAM″ = C-terminal FAM dye
Test system: NSC-34 cells
Assay: Evaluation on cell membrane permeability by flow cytometry (median fluorescence intensity)
Type: cell-based, mouse
Conditions: for MFI (median fluorescence intensity): 25 μM in well, 0.42% DMSO, 20 hours at 37° C., 10% FBS-containing DMEM, detector FL2; for cell membrane permeability: 25 μM, 20 hours, FAM as foreign substance, in words
Method: As the eukaryotic cells, NSC-34 cells (mouse motor neuron-like hybrid cell line) were used and the cell membrane permeability of the samples 1 to 7 was analyzed. In Examples 1 to 7, the prepared sample solutions 1 to 7 were used, respectively, and in Example 8, a FAM solution was used.
The NSC-34 cells were cultured in 10% fetal bovine serum (FBS)-containing Dulbecco's modified Eagle's medium (DMEM (Cat No. 044-29765, manufactured by FUJIFILM Wako Pure Chemical Corporation)), which is a normal culture medium.
The NSC-34 cells that adhered to a culture plate were cleaned with PBS and then, a 0.25%-trypsin/EDTA solution was added thereto, and incubation was performed for three minutes at 37° C. After the incubation, the aforementioned 10% FBS-containing DMEM was added to deactivate trypsin and then, five-minute centrifugal separation was performed at 150×g to precipitate the cells. After the supernatant generated by the centrifugal separation was removed, the 10% FBS-containing DMEM was added to the precipitate (cell pellet) to prepare a cell suspension of about 2×10^5 cells/mL. The cell suspension was added by 1 mL to a well of a commercially available six-hole (well) plate (manufactured by AGC TECHNO GLASS Co., Ltd.) so as to seed the cell (about 2×10^5 cells/well). In addition, the 6 mM sample solution 1 was diluted with the 10% FBS-containing DMEM to prepare the sample solution 1 in which the concentration of the sample 1 was 50 μM. Then, 1 mL of the 50 μM sample solution 1 was added to the well (that is, so that the concentration of the sample 1 became 25 µM and the DMSO concentration became 0.42% in the culture solution in the well). After that, the cell was incubated for 20 hours at 37° C. under a 5% CO2 condition.
After the 20-hour incubation, the culture supernatant was removed from the well and the cells in the well were cleaned twice with 1 mL of PBS. Next, 200 μL of the 0.25% trypsin/EDTA solution was added to the well and the incubation was performed for three minutes at 37° C. After the incubation, 400 μL of the 10% FBS-containing DMEM was added to the well to deactivate the trypsin. Subsequently, the cell suspension in the well was transferred to a tube and the cells were collected. After that, 600 μL of PBS was added further to the well to clean the well. Then, PBS in the well was transferred to the tube, so that the cells remaining in the well were collected in the tube. This tube was subjected to five-minute centrifugal separation at 4° C. under a condition of 210×g. After the centrifugal separation, the supernatant was removed and the precipitate (cell pellet) was suspended (cleaned) with 1 mL of PBS, which was followed by the centrifugal separation under the same condition as that described above. After this operation was repeated twice, the supernatant was removed and thus, the cells (cell pellet) cultured in a culture medium containing the sample 1 were obtained.
Regarding the obtained cells (cell pellet), the cell membrane permeability of the sample 1 was analyzed using a flow cytometer. As the flow cytometer, On-Chip Flowcytometer (manufactured by On-Chip Biotechnologies Co., LTD.) was used.
For such an analysis, the obtained cell pellet was suspended with 100 μL of on-chip T buffer to prepare a cell suspension for analysis.
Using the aforementioned flow cytometer, gating based on forward scatter (FSC) and side scatter (SSC) was performed to set a gate about a cell group to be analyzed, and the fluorescence intensity was measured about the cell group in this gate. Note that the analysis was performed so that the cell group contained at least 10000 cells or more. The fluorescence intensity was measured using a fluorescence detector FL2 of the flow cytometer (optimum detection wavelength around 543 nm) capable of detecting the fluorescence wavelength of FAM. […]

Row | Substance | MFI (median fluorescence intensity) | cell membrane permeability
1 | 5 (6)-carboxyfluorescein [Example 8, reference compound] | 11 | 
2 | Ac-KKRTLRKDDEERKKR-FAM (Ac-KKRTLRKDDEERKKR-{FAM}) [Example 5] | 14.8 | 
3 | Ac-KKRTLRKDEDERKKR-FAM (Ac-KKRTLRKDEDERKKR-{FAM}) [Example 6] | 15.2 | 
4 | Ac-KKRTLRKDERKKR-FAM (Ac-KKRTLRKDERKKR-{FAM}) [Example 1] | 16.3 | have the cell membrane permeability
5 | Ac-KKRTLRKEDEDEDRKKR-FAM (Ac-KKRTLRKEDEDEDRKKR-{FAM}) [Example 7] | 14.3 | 
6 | Ac-KKRTLRKEDEDRKKR-FAM (Ac-KKRTLRKEDEDRKKR-{FAM″}) [Example 3] | 13.8 | 
7 | Ac-KKRTLRKEDRKKR-FAM (Ac-KKRTLRKEDRKKR-{FAM}) [Example 2] | 15.7 | have the cell membrane permeability
8 | Ac-KKRTLRKEEDDRKKR-FAM (Ac-KKRTLRKEEDDRKKR-{FAM}) [Example 4] | 14.3 | 
